Experimental data taken from article PMC11513923, “Discovery of ZLC491 as a Potent, Selective, and Orally Bioavailable CDK12/13 PROTAC Degrader” (Journal of Medicinal Chemistry, 2024).

Assays:
[1] = tested on: HEK 293 cells; experiment: Cell proliferation assay (CCK-8); type: cell-based; details: Homo sapiens, HEK293, 120 h; 5 days, noncancerous embryonic kidney cells
Procedure: (§1) (A) Transcription level of DDR genes in MDA-MB-231 cells determined by RT-qPCR upon the treatment with vehicle or ZLC491 at different doses for 12 h, ROR1 was used as a negative control; (B) immunoblotting of DDR proteins in MDA-MB-231 cells after the treatment of ZLC491 at different doses for 48 h; (C) cell antiproliferative activity of ZLC491 in multiple TNBC cells as well as several noncancerous cells. Cells were treated with the compound for 5 days; (D,E) antiproliferative potency of cisplatin or olaparib alone or combined with ZLC491 at different doses in MDA-MB-231 cells for 5 days. Data are plotted using the percentage of absorbance relative to DMSO controls. (F) IC50 values and combination index (CI) in drug combination assay. In this model, CI scores estimate the interaction between the two drugs. If CI < 1, the drugs have a synergistic effect and if CI > 1, the drugs have an antagonistic effect. CI = 1 means the drugs have an additive effect. ^aThe drug combination in the table refers to the starting concentration of the two combined drugs, that would both go through serial dilution when treating cells.
(§2) TNBC cell lines MDA-MB-231, MDA-MB-436 and HCC38, human embryonic kidney cell line HEK 293 and human embryonic lung cell line MRC-5 were purchased from American Type Culture Collection (ATCC). Human mammary epithelial cell line MCF 10A was obtained from Chinese Academy of Sciences National Collection of Authenticated Cell Cultures. MDA-MB-231 was maintained in Leibovitz’ s L-15 medium (Gibco) supplemented with 10% fetal bovine serum (FBS; Excell Bio) and 1% penicillin/streptomycin (P/S; Gibco) at 37 °C in a humidified chamber of 100% air atmosphere. MDA-MB-436 and HCC38 were developed in Dulbecco’s modified Eagle medium (DMEM; Gibco) and RPMI-1640 medium (Gibco), respectively, both supplemented with 10% FBS (Excell Bio) and 1% P/S (Gibco), using a 37 °C constant temperature incubator with 5% CO2. HEK 293 and MRC-5 were cultured in the same condition with Eagle’s minimum essential medium (EMEM; Wisent). MCF 10A was grown in Mammary Epithelial Cell Growth Medium BulletKit (Lonza) at 37 °C in a humidified chamber with 5% CO2.
(§3) Tested cells were plated in 96-well or 384-well plates and incubated at 37 °C with or without 5% CO2. After overnight incubation, serial dilutions of compounds were added to the plate. Cell proliferation was measured 5 days after compound treatment using Cell Counting Kit-8 (Selleck) according to the manufacturer’s instructions.

[2] = tested on: MCF 10A cells; experiment: Cell proliferation assay (CCK-8); type: cell-based; details: Homo sapiens, 120 h, 5 days, noncancerous mammary epithelial cells
Procedure: as §1, §2, §3

[3] = tested on: MRC-5 cells; experiment: Cell proliferation assay (CCK-8); type: cell-based; details: Homo sapiens, MRC5, 120 h; 5 days, noncancerous embryonic lung cells
Procedure: as §1, §2, §3

[4] = tested on: MDA-MB-231 cells; experiment: Cell proliferation assay (CCK-8); type: cell-based; details: Homo sapiens, MDA-MB-231, 120 h; 5 days
Procedure: as §1, §2, §3

[5] = tested on: HCC38 cells; experiment: Cell proliferation assay (CCK-8); type: cell-based; details: Homo sapiens, HCC38, 120 h; 5 days
Procedure: as §1, §2, §3

[6] = tested on: MDA-MB-436 cells; experiment: Cell proliferation assay (CCK-8); type: cell-based; details: Homo sapiens, MDA-MB-436, 120 h; 5 days
Procedure: as §1, §2, §3

[7] = tested on: B3GAT3; experiment: TMT-labeled quantitative proteomics in MDA-MB-231 cells; type: cell-based, Homo sapiens; details: 2 μM ZLC491 vs DMSO, 8 h
Procedure: (§4) Figure 5 ZLC491 degraded CDK12/13 with high selectivity. (A) Global proteomic analysis of ZLC491 in MDA-MB-231 cells after 8 h treatment of DMSO or 2 μM ZLC491; (B) mass-spec quantification of CDKs changes; (C) immunoblotting of target protein degradation in samples for proteomic analysis.
(§5) MDA-MB-231 cells were seeded at 8 × 10^5 cells in 6 cm dishes 24 h before treating with 2 μM ZLC491 or DMSO in quadruplicate or triplicate for 8 h. Cell lysates were prepared by washing cells twice with cold PBS and adding 180 μL lysis buffer (10 mM HEPES, pH 7.0, 1% (w/v) SDS, 2 mM MgCl·6H2O supplemented with 0.1% BeyoZonase (Beyotime)) per dish. Samples were quantified using a micro-BCA protein assay kit (Thermo Fisher Scientific) and 600 μg of each sample was processed and digested using the filter aided sample preparation (FASP) method followed by alkylation with iodoacetamide and digestion with trypsin. The samples were then desalted using Oasis HLB C18 SPE cartridge column (Waters, WAT094225). The peptides were lyophilized and reconstituted, then 25 μg peptides of each sample were labeled with TMT 11-plex Isobaric Label Reagent Set (Thermo Fisher Scientific) as the manufacturer’s instructions. After labeling, the peptides from the 11 samples were pooled together. The pooled TMT 11-plex sample was fractionated using high pH reverse-phase chromatography on an XBridge peptide BEH column (130 Å, 3.5 μm, 2.1 × 150 mm, Waters) on an Ultimate 3000 HPLC system (Thermo Scientific/Dionex). […]
(§6) The fractions were analyzed sequentially on an Orbitrap Fusion Lumos Mass Spectrometer (Thermo Scientific) coupled to a NanoLC-1200 UHPLC system (Thermo Scientific) with C18 capillary column. […] MS3 precursor were fragmented by HCD and analyzed with Orbitrap at NCE 65, AGC 1E5, resolution 60000.
(§7) The raw MS data files for all 11 fractions were searched against the Uniprot-Human-Canonical database by Proteome Discoverer 2.0 for protein identification and TMT reporter ion quantitation. […]

[8] = tested on: ARG2; experiment: as above; type: cell-based, Homo sapiens; details: 2 μM ZLC491 vs DMSO, 8 h
Procedure: as §4, §5, §6, §7

[9] = tested on: NME2; experiment: as above; type: cell-based, Homo sapiens; details: 2 μM ZLC491 vs DMSO, 8 h
Procedure: as §4, §5, §6, §7

N#Cc1ccc(N[C@H]2CC[C@H](N(C(=O)NCc3ccccc3)c3ccc(N4CCN(C5CCN(c6cc7c(cc6F)C(=O)N(C6CCC(=O)NC6=O)C7=O)CC5)CC4)cc3)CC2)nc1 (stereo partly drawn) [ZLC491, 3-Benzyl-1-((1r,4r)-4-((5-cyanopyridin-2-yl)amino)cyclohexyl)-1-(4-(4-(1-(2-(2,6-dioxopiperidin-3-yl)-6-fluoro-1,3-dioxoisoindolin-5-yl)piperidin-4-yl)piperazin-1-yl)phenyl)urea]
IC50 [1]: > 10000 nM
IC50 [2]: > 10000 nM
IC50 [3]: > 10000 nM
IC50 [4]: 620 nM
IC50 [5]: 190 nM
IC50 [6]: 120 nM
FC_4-91 (B3GAT3) [7]: 1.982
FC_4-91 (ARG2) [8]: 1.14
FC_4-91 (NME2) [9]: 1.1277
